US20230279016A1, “Tetrahydropyrazolopyrimidines and Related Analogs for Inhibiting YAP/TAZ-TEAD” (THE KATHOLIEKE UNIVERSITEIT LEUVEN, priority 2021, published 2023)

Columns and labels:
Format in all cases: cell-based
[1] = system: YAP/TAZ-TEAD transcription; experiment: Reporter gene assay for measuring the inhibition of YAP/TAZ-TEAD transcription (TEAD-responsive element luciferase reporter in Hek293T cells); details: Homo sapiens, HEK-293T, 24 h, Hek293T cells transiently transfected with TEAD-responsive element luciferase reporter, 24 hours incubation
How it was run: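 Hek293T cells transiently transfected with TEAD-responsive luciferase reporter, exposed to compound for 24 h at 37° C/5% CO2, then read by luminescence. Percent inhibition normalized to vehicle (0%) and positive control inhibitor (100%); EC50 reported as activity ranges.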

[2] = system: NCI-H226 mesothelioma cell line; experiment: Mesothelioma cell line proliferation assay, NCI-H226; details: Homo sapiens, NCI-H226, 144 h, NCI-H226, 6 days with compound, cell viability by ATPlite
Procedure: (§1) Mesothelioma cell lines, NCI-H226 and NCI-H2052 (all sourced from the ATCC cell culture collection) are plated in 96-well plates (Corning® 96 Well White Polystyrene Microplate clear flat bottom, white polystyrene (TC-Treated)), at 1500 cells/well in full medium (RPMI 1640 ATCC modification with L-glutamine, HEPES, Phenol Red, Sodium Pyruvate, High glucose, Low sodium bicarbonate and 10% fetal bovine serum). Cells are incubated overnight at 37° C. in an incubator with 5% CO2. Then compounds, dissolved in DMSO, are added in dose-response. Cells are incubated with compound dilutions for another 6 days at 37° C. in an incubator with 5% CO2. Cell viability is quantitated using the ATPlite kit (Perkin-Elmer) and the luminescence is read-out using an Envision instrument (Perkin-Elmer). The amount of relative light units produced using the ATPlite kit is used to calculated percent of inhibition.
(§2) The activities of example compounds tested are depicted in the table below. The activity ranges A, B and C refer to EC50 values in the mesothelioma cell line proliferation assay as described as follows: “A”: EC50 <1 μM; “B” : 1 μM EC50 ≤10 μM and “C” : EC50 >10 μM. NT: not tested.

[3] = system: NCI-H2052 mesothelioma cell line; experiment: Mesothelioma cell line proliferation assay, NCI-H2052; details: Homo sapiens, NCI-H2052, 144 h, NCI-H2052, 6 days with compound, cell viability by ATPlite
Procedure: as §1, §2

EC50 [1] | EC50 [2] | EC50 [3] | SMILES
< 1000 nM | 1000 to 10000 nM | < 1000 nM | C#CC(=O)NCC1CN(c2ccc(C(F)(F)F)cc2)c2ccnn2C1 (stereo not drawn) [Cpd. No. 038, N-((4-(4-(trifluoromethyl)phenyl)-4,5,6,7-tetrahydropyrazolo[1,5-a]pyrimidin-6-yl)methyl)propiolamide]
< 1000 nM | < 1000 nM | < 1000 nM | C=C(F)C(=O)NCC1CN(c2ccc(C(F)(F)F)cc2)c2ccnn2C1 (stereo not drawn) [Cpd. No. 039, 2-fluoro-N-((4-(4-(trifluoromethyl)phenyl)-4,5,6,7-tetrahydropyrazolo[1,5-a]pyrimidin-6-yl)methyl)acrylamide]
< 1000 nM | < 1000 nM | > 10000 nM | C=C(C)C(=O)NCC1CN(c2ccc(C(F)(F)F)cc2)c2ccnn2C1 (stereo not drawn) [Cpd. No. 040, N-((4-(4-(trifluoromethyl)phenyl)-4,5,6,7-tetrahydropyrazolo[1,5-a]pyrimidin-6-yl)methyl)methacrylamide]
< 1000 nM | < 1000 nM | < 1000 nM | C=CC(=O)NCC1CN(Cc2ccc(C(F)(F)F)cc2)c2ccnn2C1 (stereo not drawn) [Cpd. No. 048, N-((4-(4-(trifluoro-methyl)benzyl)-4,5,6,7-tetrahydropyrazolo[1,5-a]pyrimidin-6-yl)methyl)acrylamide]
< 1000 nM | < 1000 nM | < 1000 nM | C=CC(=O)NCC1CN(Cc2cccc(C(F)(F)F)c2)c2ccnn2C1 (stereo not drawn) [Cpd. No. 052, N-((4-(3-(trifluoro-methyl)benzyl)-4,5,6,7-tetrahydropyrazolo[1,5-a]pyrimidin-6-yl)methyl)acrylamide]
< 1000 nM | < 1000 nM | 1000 to 10000 nM | C=CC(=O)NCC1CN(c2ccc(C(F)(F)F)cc2)c2c(Br)cnn2C1 (stereo not drawn) [Cpd. No. 058, N-((3-bromo-4-(4-(trifluoromethyl)phenyl)-4,5,6,7-tetrahydropyrazolo[1,5-a]pyrimidin-6-yl)-methyl)acrylamide]
< 1000 nM | > 10000 nM | > 10000 nM | C=CC(=O)NCC1CNc2c(CC#Cc3ccccc3)cnn2C1 (stereo not drawn) [Cpd. No. 059, N-((3-(3-phenylprop-2-yn-1-yl)-4,5,6,7-tetrahydropyrazolo[1,5-a]pyrimidin-6-yl)-methyl)acrylamide]
< 1000 nM | < 1000 nM | < 1000 nM | C=CC(=O)NC1CN(c2ccc(C(F)(F)F)cc2)c2ccnn2C1 (stereo not drawn) [Cpd. No. 061, N-(4-(4-(trifluoromethyl)phenyl)-4,5,6,7-tetrahydropyrazolo[1,5-a]pyrimidin-6-yl)acrylamide]
< 1000 nM | < 1000 nM | < 1000 nM | C=CC(=O)NC1CN(c2ccc(OC(F)(F)F)cc2)c2ccnn2C1 (stereo not drawn) [Cpd. No. 063, N-(4-(4-(trifluoromethoxy)phenyl)-4,5,6,7-tetrahydropyrazolo[1,5-a]pyrimidin-6-yl)acrylamide]
< 1000 nM | < 1000 nM | < 1000 nM | C=CC(=O)NCC1Cc2c(cnn2C)N(c2ccc(C(F)(F)F)cc2)C1 (stereo not drawn) [Cpd. No. 068, N-((1-methyl-4-(4-(trifluoromethyl)phenyl)-4,5,6,7-tetrahydro-1H-pyrazolo[4,3-b]pyridin-6-yl)methyl)acrylamide]
< 1000 nM | < 1000 nM | < 1000 nM | C=CC(=O)NCC1Cc2nn(C)cc2N(c2ccc(C(F)(F)F)cc2)C1 (stereo not drawn) [Cpd. No. 069, N-((2-methyl-4-(4-(trifluoromethyl)phenyl)-4,5,6,7-tetrahydro-2H-pyrazolo[4,3-b]pyridin-6-yl)methyl)acrylamide]
< 1000 nM | < 1000 nM | < 1000 nM | C=CC(=O)NCC1Cc2c(cnn2C)N(c2ccc(OC(F)(F)F)cc2)C1 (stereo not drawn) [Cpd. No. 070, N-((1-methyl-4-(4-(trifluoromethoxy)phenyl)-4,5,6,7-tetrahydro-1H-pyrazolo[4,3-b]pyridin-6-yl)methyl)acrylamide]
< 1000 nM | < 1000 nM | < 1000 nM | C=CC(=O)NCC1Cc2nn(C)cc2N(c2ccc(OC(F)(F)F)cc2)C1 (stereo not drawn) [Cpd. No. 071, N-((2-methyl-4-(4-(trifluoromethoxy)phenyl)-4,5,6,7-tetrahydro-2H-pyrazolo[4,3-b]pyridin-6-yl)methyl)acrylamide]
< 1000 nM | < 1000 nM | < 1000 nM | C=CC(=O)NCC1Cc2c(cnn2Cc2cccc(C(N)=O)c2)N(c2ccc(C(F)(F)F)cc2)C1 (stereo not drawn) [Cpd. No. 080, 3-((6-(acrylamido-methyl)-4-(4-(trifluoromethyl)phenyl)-4,5,6,7-tetrahydro-1H-pyrazolo[4,3-b]pyridin-1-yl)methyl)benzamide]
< 1000 nM | < 1000 nM | < 1000 nM | C=CC(=O)NCC1Cc2nn(Cc3cccc(C(N)=O)c3)cc2N(c2ccc(C(F)(F)F)cc2)C1 (stereo not drawn) [Cpd. No. 081, 3-((6-(acrylamidomethyl)-4-(4-(trifluoromethyl)-phenyl)-4,5,6,7-tetrahydro-2H-pyrazolo[4,3-b]pyridin-2-yl)methyl)benzamide]
< 1000 nM | > 10000 nM | > 10000 nM | O=C1NCCC12CN(c1ccc(C(F)(F)F)cc1)c1ccnn1C2 (stereo not drawn) [Cpd. No. 087, 4-(4-(trifluoromethyl)phenyl)-4,5-dihydro-7H-spiro[pyrazolo[1,5-a]pyrimidine-6,3′-pyrrolidin]-2′-one]
< 1000 nM | < 1000 nM | < 1000 nM | C=CC(=O)N1CCC2(C1)CN(c1ccc(C(F)(F)F)cc1)c1ccnn1C2 (stereo not drawn) [Cpd. No. 088, 1-(4-(4-(trifluoromethyl)phenyl)-4,5-dihydro-7H-spiro[pyrazolo[1,5-a]pyrimidine-6,3′-pyrrolidin]-1′-yl)prop-2-en-1-one]
